Experimental data from PMC11148078, “Potent activity of polymyxin B is associated with long-lived super-stoichiometric accumulation mediated by weak-affinity binding to lipid A” (Nature Communications, 2024).
Entries after “also recorded” stand apart in the source; their conditions may differ. Where two headings read alike, the source gives them in different places. Bridge positions count the residues as written; N and C are the ends. Square brackets hold non-standard residues; d marks the D form. Peptide text beside a SMILES is read from it. * marks the point of attachment. X1 = CC[C@H](C)CCCCC(=O)*; Dab = NCC[C@H](N)C(=O)O

Assays:
Parameters in all cases: species or system E. coli
wt-OMVs [1] = test: SPR steady-state affinity of reversible (saw-tooth) binding, wt-OMVs; conditions: n=4, (SD), read-out: Apparent KD
Description: (§1) An apparent-KD was measured for the reversible saw-tooth binding profile where polymyxin B was titrated over an OMV surface pre-saturated with the stable binding component (Supplementary Information Fig. S11B). […] No pre-saturation was necessary when using resistant-OMVs or PMBN as these lack the stable component (Fig. 2B, D–F).
(§2) Binding and kinetic analysis of SPR-OMV assays
(§3) To determine the apparent- KD of the reversible binding event of polymyxin B, single-cycle kinetics were performed as described in Materials and Methods. After OMVs were loaded, 5 µM polymyxin B was injected for 360 sec ([…] flow rate) followed by 120 sec dissociations to saturate the stable-binding population prior to the sample injections. The base-to-peak value of each trace was determined from double-referenced traces (reference 1: - OMVs/ + compound channel; reference 2: + OMVs/ - compound) exported from the Biacore S200 evaluation software into PRISM 9 software. The change in RU with each pulse was plotted over the concentration and the KD determined by fitting a non-linear regression, one-site total function with background parameter set to 0 (GraphPad Prism version 9.3.1 for Mac, GraphPad Software, San Diego, California USA, www.graphpad.com). […]

resistant-OMVs = test: SPR steady-state affinity of reversible binding, resistant-OMVs; conditions: no pre-saturation; n=4 (polymyxin B), n=3 (PMBN), (SD); read-out: Apparent KD
Description: as §1, §2, §3

wt-OMVs [2] = test: TEM / cryo-EM of treated OMVs; conditions: ~0.5:1 compound to LPS
Description: OMVs were incubated in OMV buffer (as above) plus 0.0005% tween-80 and then polymyxin B, PMBN, or an equal volume of OMV buffer, added for a final ratio of 0.5:1 polymyxin B (or PMBN) to LPS for either 1 min or 40 min. The amount of LPS in the OMV preparations was determined using fluorescently labeled LPS as described. LPS was quantified by addition of 20 µL of 4 µM dansyl-polymyxin B to 20 µL of sample or dilution series of LPS in PBS with 0.004% tween-80 and 5 mM EDTA in a while polypropylene 384-well plate (Thermo-Fisher). The plate was incubated for 30 min at room-temperature before reading the fluorescence intensity on a plate reader (Ex 340 nm, Em 495 nm, cutoff 475 nm). Concentration was interpolated using a standard curve. Log-phase bacteria were diluted to OD600 of 0.25 in 3 mL of LB supplemented with tween-80 before addition of 1 µL of 1 µM polymyxin B or PMBN and incubated statically at 37 °C. Samples were fixed at times indicated by addition of equal volume of 2x Karnovsky fix and stored at 4 °C. The suspensions were then adsorbed to the surface of formvar and carbon-coated standard TEM grids (75 mesh) for 15 min at room temperature, quickly rinsed in ultrapure water. OMVs were stained twice for 60 s with 2% aqueous uranyl acetate and bacteria were stained with uranyl-less stain (ready-to-use solution from Electron Microscopy Sciences) twice for 60 s. Excess staining solution was blotted off and grids were air dried. Imaging was with JEOL JEM-1400 transmission electron microscope (TEM) operated at 80 kV using magnification form 5000x to 100,000x. At least 20 images were taken for each sample. […]
California USA, www.graphpad.com). […]
Wild-type and polymyxin-resistant OMVs (pmrAG53E) were incubated with polymyxin B, PMBN, or an equal volume of buffer, as described for TEM imaging at a final ratio of 0.5:1 polymyxin B (or PMBN) to LPS for 20 min. To prepare samples for cryo-EM, 4 μL of each condition was applied to holey gold grids (UltrAuFoil 25 nm R 1.2/1.3; Quantifoil) which had been glow discharged for 20 sec with a Solarus plasma cleaner (Gatan). […]

Structure (SMILES) | Kd (wt-OMVs [1]; no pre-saturation) [nM] | Kd (resistant-OMVs) [nM] | effect on OMV morphology (words) (wt-OMVs [2]) | Kd (wt-OMVs [1]; isolated reversible binding, OMVs pre-saturated with 5 µM polymyxin B) [nM] | effect on OMV morphology (words) (wt-OMVs [2]; listed as polymyxin B)
CC(C)C[C@@H]1NC(=O)[C@@H](Cc2ccccc2)NC(=O)[C@H](CCN)NC(=O)[C@@H](NC(=O)[C@H](CCN)NC(=O)[C@@H](N)[C@@H](C)O)CCNC(=O)[C@H]([C@@H](C)O)NC(=O)[C@H](CCN)NC(=O)[C@H](CCN)NC1=O [PMBN] (H-T[Dab][Dab][Dab][dF]L[Dab][Dab]T; lactam 3-C) | 288 | 371 | less or no OMV clumping was observed | – | –
CC[C@H](C)CCCCC(=O)N[C@@H](CCN)C(=O)N[C@H](C(=O)N[C@@H](CCN)C(=O)N[C@H]1CCNC(=O)[C@H]([C@@H](C)O)NC(=O)[C@H](CCN)NC(=O)[C@H](CCN)NC(=O)[C@H](CC(C)C)NC(=O)[C@@H](Cc2ccccc2)NC(=O)[C@H](CCN)NC1=O)[C@@H](C)O [Polymyxin B] (X1-[Dab]T[Dab][Dab][Dab][dF]L[Dab][Dab]T; lactam 4-C (inferred); N-terminus assumed) | – | 273 | led to clumping | 517 | exhibited vesiculation and tubules; also recorded: OMVs are perturbed by polymyxin B
